Experimental data as given in patent US20080248134A1, “Oral compositions, use and combinations of N-[2-(dimethylamino)ethyl]-2,6 dimethyl-1-oxo-1,2-dihydrobenzo[b]-1,6-naphthyridine-4-carboxamide and closely related analogues thereof” (Auckland Uniservices Limited, priority 2005, published 2008).
pIC50: −log10 of the molar value.

Tests used:
[1] = tested on: NZM4 melanoma line (mutant p53); test: Induction of cell cycle arrest, flow cytometry; assay type: cell-based, human; conditions: NZM4, 0.3 μM for one hour, grown up to 9 days
Protocol: (§1) Flow cytometry was used to determine the magnitude and duration of cell cycle arrest induced by the compound of the present invention. Two human melanoma lines were used in a preliminary study, one having wild-type p53 status (NZM6) and one having mutant p53 status (NZM4). Cells were exposed to the compound of Formula II for one hour at a concentration of 0.3 μM, washed free of drug and grown for up to a further 9 days.

[2] = tested on: NZM6 melanoma line (wild-type p53); test: Induction of cell cycle arrest, flow cytometry; assay type: cell-based, human; conditions: NZM6, 0.3 μM for one hour, grown up to 9 days
Protocol: as §1

[3] = Plasma and tissue pharmacokinetics; assay type: in vivo, mice
Protocol: Plasma and tissue pharmacokinetics of the compound of Formula II, were compared following intraperitoneal administration at a dose of 8.9 mg/kg body weight. Mice were terminally anaesthetised at various times up to 75 hours after drug administration and tissue and blood was taken for preparation of samples. Plasma and tissue concentrations of the compound of Formula II were measured by high performance liquid chromatography-mass spectrophometry. The results are shown in FIG. 8, the vertical bars showing the standard deviation of the mean values from three mice per time point. The concentration of drug in plasma is very low on this scale (<100 nmol/kg), implying a high ratio of the concentration of cell-associated drug to that of external drug
Plasma and tissue pharmacokinetics, were further investigated following intraperitoneal administration of the compound of Formula II at a dose of 8.9 mg/kg. Mice were terminally anaesthetised at various times up to 75 hours after drug administration and tissue and blood was taken for preparation of samples. Plasma and tissue concentrations of the compound of Formula II were measured by high performance liquid chromatography-mass spectrophometry. The results are shown in FIG. 9, the vertical bars showing the standard deviation of the mean values from three mice per time point. The concentration differential (ie the slope of each plot) indicates the half life of the compound of Formula II in each tissue type and plasma. The half life of the compound of Formula II in various tissue types including liver, kidney, brain, heart and plasma, calculated from points on the concentration time curve, is approximately three hours. The half life of the compound of Formula II in tumour tissue, calculated from points on the concentration time curve, is approximately 9 hours. This is approximately a three-fold increase in the concentration differential in tumour tissue to non-tumour tissue and plasma concentration of Formula II. This effectively leads to an accumulation of the compound of Formula II in tumour tissue relative to other tissue.
The plasma and tissue pharmacokinetics of a compound of Formula II, were also compared with several well known cancer therapies as shown in FIG. 10. The analytical methods used to obtain data for other therapies varies and was taken from the literature. The AUC (area under the concentration-time curve) values of the compound of Formula II show approximately a 6-7 fold increase in concentration of Formula II in tumour tissue over liver tissue. The AUC values in plasma are negligible. A longer half life (higher concentration differential) in a particular tissue, leads to a larger AUC value (area under the concentration versus time curve). The AUC values provide an indication of the amount of each compound accumulated in a particular tissue or plasma over time.
The ability of different anticancer drugs to be retained selectively in tumour tissue can also be conveniently compared as the ratio of AUC values for a normal tissue versus a tumour tissue. […] Cancer Chemother Pharmacol. 1996; 38: 417-24), amsacrine and asulacrine (Kestell P, Paxton J W, Evans P C, Young D, Jurlina J L, Robertson I G C, Baguley B C. Disposition of amsacrine and its analogue 9-((2-methoxy-4-[(methylsulfonyl)-amino]phenyl)amino)-N,5-dimethyl-4-acridinecarboxamide (CI-921) in plasma, liver, and Lewis lung tumors in mice. Cancer Res 1990; 50: 503-508) and DACA (Kestell P, Dunlop I, McCrystal M R, Evans B D, Paxton J W, Gamage R S K A, Baguley B C. Plasma pharmacokinetics of DACA (N-[2-(dimethylamino)-ethyl]-acridine-4-carboxamide) in a phase I trial. Cancer Chemother Pharmacol 1999; 44: 45-50). Similar analytical methods, employing high performance liquid chromatography, were used. […]

[4] = tested on: colon 38 tumours; test: Response of colon 38 tumours in immunocompetent and Rag1 immunodeficient mice; assay type: in vivo
Protocol: A single dose of 5.9 mg/kg of the compound of Formula II was administered intraperitoneally to immunocompetent mice in A, while a 5.9 mg/kg dose on days 0 and 7 was administered to Rag 1 immunodeficient mice (see FIG. 13). […] Initial tumour response (apoptosis induction) is similar in normal and immunosuppressed mice. The compound of Formula II appears to induce a change in tumour cells that activates a T-cell mediated response leading to tumour regression. This dependence on T-cells for response might explain why only moderate activity of the compound of Formula II is found in xenografts.

[5] = tested on: JLA; test: In vitro cell proliferation assay, continuous drug exposure; assay type: cell-based; conditions: Homo sapiens; JLA (reduced topoisomerase II), continuous drug exposure 3-5 days
From the text: (§2) The results with the JLA and JLD lines, which have reduced topoisomerase II content as compared to the parental Jurkat line, indicate that the IC50 value of the compound is increased with decreased topoisomerase content. This is also the case for etoposide, amsacrine, DACA and doxorubicin.

[6] = tested on: HCT116p53+; test: as above; assay type: cell-based; conditions: Homo sapiens, continuous drug exposure 3-5 days
From the text: as §2

[7] = tested on: JLD; test: as above; assay type: cell-based; conditions: Homo sapiens; JLD (reduced topoisomerase II), continuous drug exposure 3-5 days
From the text: as §2

[8] = tested on: Jurkat; test: as above; assay type: cell-based; conditions: Homo sapiens, continuous drug exposure 3-5 days
From the text: as §2

[9] = tested on: HCT116p53−; test: as above; assay type: cell-based; conditions: Homo sapiens, continuous drug exposure 3-5 days
From the text: as §2

[10] = tested on: melanoma tissue taken from a patient; test: Response of a melanoma taken directly from a cancer patient, xenograft in immunodeficient mice; assay type: in vivo, human; conditions: two doses of 5.9 mg/kg, 7 days apart
Protocol: Metastatic melanoma is particularly resistant to current chemotherapy. Melanoma tissue taken from a patient at surgery was implanted subcutaneously in immunodeficient mice. After three months, the tumour in one animal was excised and transferred to further immunodeficient mice. The tumours were grown to a diameter of approximately 4 mm before treatment and the compound of Formula II was administered in two doses of 5.9 mg/kg, 7 days apart.

[11] = intraperitoneal 8.9 mg/kg, mice

Cc1cccc2cc3c(=O)n(C)cc(C(=O)NCCN(C)C)c3nc12 [Formula II, N-[2-(dimethylamino)ethyl]-2,6 dimethyl-1-oxo-1,2-dihydrobenzo[b]-1,6-naphthyridine-4-carboxamide]
cell cycle arrest [1]: minimal effect in G1-phase but an extended effect in G2-phase
cell cycle arrest [2]: extended arrest of NZM6 cells in both G1- and G2-phase
ratio of AUC values (tumour/liver) ([3]; compared with doxorubicin, amsacrine, asulacrine and DACA): clearly superior
half life in liver, kidney, brain, heart and plasma [3, 11]: approximately three
increase in the concentration differential in tumour tissue to non-tumour tissue and plasma [3, 11]: approximately three
concentration of drug in plasma ([3]; intraperitoneal 8.9 mg/kg, mice, up to 75 hours): < 100 nmol/kg
AUC: increase in concentration in tumour tissue over liver tissue ([3]; mice): 6-7 fold
half-life ([3]; mouse, ip, colon 38 tumour tissue, intraperitoneal 8.9 mg/kg, mice): ~9 h
AUC values in plasma ([3]; relative to tissue AUC, mice): negligible
activity against colon 38 tumours ([4]; Rag1 immunodeficient mice, 5.9 mg/kg on days 0 and 7): attenuated
activity against colon 38 tumours ([4]; immunocompetent mice, single dose of 5.9 mg/kg intraperitoneally): active
pIC50 [5]: 7.42
pIC50 [6]: 8.07
pIC50 [7]: 7.28
pIC50 [8]: 8.17
pIC50 [9]: 7.96
melanoma growth [10]: strong inhibition of melanoma growth
